Reference: patent publication US12622890B2, “Use of the active compound in the prevention or treatment of ovarian dysfunction diseases” (INSTITUTE OF BIOPHYSICS, CHINESE ACADEMY OF SCIENCES, priority 2022, dated 2026)
Structures can show the parent of a compound that is named as a salt.

Assays:
[1] = tested on: POI mice; assay: Serum estradiol (E2) level in POI mice; type: in vivo; conditions: for E2: serum, after 12 days 100 mg/kg/d oral
Source text: (§1) Biomarkers mentioned herein, such as follicle stimulating hormone (FSH), estrogen (e.g., E2), and superoxide dismutase (SOD), malondialdehyde (MDA), relative reactive oxygen species (ROS), and lactate dehydrogenase (LDH), etc., can be detected using methods commonly known in the field. Detection methods typically cover methods that quantify the level of a biomarker in a sample (quantitative methods). Which of the following methods are suitable for qualitative and/or quantitative detection of biomarkers is generally known to those skilled in the field. Samples can be conveniently measured, for example for proteins using immunoassays such as ELISA, RIA, etc., which are commercially available.
(§2) After 12 days of administration, half of the mice in each group were sacrificed, and their blood was collected and kept still. The serum was separated after centrifugation at 4500 rpm and stored in a refrigerator at −80° C. for future use to measure levels of follicle stimulating hormone, estrogen, and the indexes of oxidative stress such as superoxide dismutase (SOD) and malondial dehyde (MDA).
as §2, with “kept in” for “kept”, “levals” for “levels”, “malondialdehyde” for “malondial dehyde”

[2] = tested on: POI mice; assay: Serum malondialdehyde (MDA) level, oxidative stress; type: in vivo
Source text: as §1, §2
as §2, with “kept in” for “kept”, “levals” for “levels”, “malondialdehyde” for “malondial dehyde”
(§3) The oxidative stress hypothesis believes that the reduction of antioxidant components in the body leads to the weakening of the ability to remove free radicals, which leads to oxidative damage of biological macromolecules, and the imbalance of cellular oxidative and antioxidant functions, which leads to oxidative stress, and then leads to disease and aging. Oxygen free radicals act on unsaturated fatty acids of lipids to generate lipid peroxides, including malondialdehyde (MDA) and so on. The antioxidant defense system of scavenging free radicals includes superoxide dismutase (SOD) and so on. Recently, oxidative stress has been reported to be associated with ovarian aging and POI in primates. Therefore, this embodiment examined the effects of DMF, HDCA, and DMF+HDCA on oxidative stress in mice with premature ovarian failure, and the results are shown in Table 5, FIGS. 9 to 12.

[3] = tested on: POI model mice; assay: Estrous cycle observation by vaginal smear cytology in POI model mice; type: in vivo
[4] = tested on: ovarian tissues; assay: RNA transcription level sequencing of ovarian tissues, differentially expressed genes; type: in vivo, mice; conditions: ovarian tissue RNA sequencing, FC>2, Q<0.05
Experimental: Mice were sacrificed after various treatments, and ovarian tissues were taken, snap-frozen in liquid nitrogen, stored at −80° C., and sent to Annoroad for RNA transcription level sequencing. Bioinformatics analysis and mapping were performed on the sequencing results. […] The differential genes of the three treatment groups were intersectioned. […] These differential gene sets were then subjected to Gene Ontology function (GO) enrichment (FC>2, Q<0.05) (FIG. 16) and signaling pathway (KEGG) analysis mapping (FIG. 17), respectively.

[5] = Body weight of POI model mice before modeling, after modeling and after treatment; type: in vivo; conditions: for Body weight before modeling: D 0, 100 mg/kg/d oral; for Body weight after modeling: D 7, 100 mg/kg/d oral; for Body weight after treatment: D 13, 100 mg/kg/d oral
Experimental: Animal model establishment: A total of 34 C57 female mice (8-week-old) were selected and intraperitoneally injected with the ratio of 120 mg/kg cyclophosphamide (SIGMA) and 30 mg/kg Busulfan (Aladdin) once a day for 1 week at the dose of 0.1 mL/10 g to establish the model of POI.
Grouping: 34 POI model mice were randomly divided into four groups: sodium fumarate (SF) treatment group (n=9), hyodeoxycholic acid (HDCA) treatment group (n=8), sodium fumarate plus hyodeoxycholic acid (mass ratio 1:1) combination (SF+HDCA) treatment group (n=8) and normal saline (Vehicle) group (n=9). Mice in the SF group were given oral administration of SF at the ratio of 100 mg/kg/d body weight, mice in the HDCA group were given oral administration of HDCA at the ratio of 100 mg/kg/d body weight, and mice in the combination group were given oral administration of SF and HDCA at the ratio of 100 mg/kg/d body weight. SF and HDCA were dissolved with 0.9% normal saline when used. Mice in the vehicle group were given the same amount of normal saline orally. All the mice were treated consecutively for 12 days.
Body weight were recorded at three time points, before modeling (at the beginning of treatment), after modeling and after treatment.
Animal model establishment: A total of 24 C57 mice (8-week-old) were selected and intraperitoneally injected with the ratio of 120 mg/kg cyclophosphamide and 30 mg/kg Busulfan once a day for 1 week at the dose of 0.1 mL/10 g to establish the model of POI.
Grouping: 24 POI model mice were randomly divided into four groups: dimethyl fumarate (DMF) treatment group (n=5), hyodeoxycholic acid (HDCA) treatment group (n=6), dimethyl fumarate plus hyodeoxycholic acid (mass ratio=1:1) combination (DMF+HDCA) treatment group (n=7) and normal saline (Vehicle) group (n=6). Mice in the DMF treatment group were orally administrated at the ratio of 100 mg/kg/d body weight. Mice in the HDCA treatment group were given oral administration of HDCA at the ratio of 100 mg/kg/d body weight, and mice in the combination group were given oral administration of DMF and HDCA at the ratio of 100 mg/kg/d body weight. Once daily, DMF and HDCA were dissolved in 0.9% normal saline when used. Mice in normal saline group were given the same amount of normal saline orally every day. The drug was administered for 12 days.
Body weight were recorded at three time points, before modeling (at the beginning of treatment, the 0th day), after modeling (the 7th day) and after treatment (the 13th day).
The body weight of POI model mice of each group was measured before modeling, after modeling and after treatment.

[6] = tested on: POI mice; assay: Serum relative reactive oxygen species (ROS) level; type: in vivo
Source text: as §1, §3

[7] = tested on: POI mice; assay: Serum FSH level in POI mice; type: in vivo; conditions: for FSH: serum, after 12 days 100 mg/kg/d oral
Source text: as §1, §2
as §2, with “kept in” for “kept”, “levals” for “levels”, “malondialdehyde” for “malondial dehyde”
• 1. Hormone levels in mice blood of Example 1 are measured in this embodiment.

[8] = tested on: POI mice; assay: Serum superoxide dismutase (SOD) level, oxidative stress; type: in vivo
Source text: as §1, §2
as §2, with “kept in” for “kept”, “levals” for “levels”, “malondialdehyde” for “malondial dehyde”
as §3

[9] = tested on: POI mice; assay: Serum lactate dehydrogenase (LDH) level; type: in vivo
Source text: as §1

[10] = tested on: aged mice with ovarian dysfunction; assay: Ovulation after controlled ovarian hyperstimulation in aged mice; type: in vivo; conditions: fourteen months old mice
Experimental: In this Embodiment, the effect of sodium fumarate and hyodeoxy cholic acid on ovulation in aged mice with ovarian dysfunction (ovarian function decline due to natural aging) was examined. Fourteen months old mice were divided into three groups: control group (n=6), sodium fumarate group (SF, n=4), sodium fumarate and hyodeoxy cholic acid group (SF+HDCA, n=3).
Methods: After controlled ovarian hyperstimulation (48 hours after pregnant horse serum injection, followed by chorionic gonadotropin injection), the ampulla of fallopian tubes of mice was collected 14-16 hours later, and the number of oocytes obtained was recorded. […] All 4 mice in the SF group ovulated.

[11] = tested on: POI model mice; assay: Estrous cycle observation by vaginal smear cytology in POI model mice; type: in vivo; remark: listed apart in the source
Experimental: Cytological observation of vaginal smear was performed daily.
The vagina of mice was exposed, and about 30 μl of normal saline was dripped into the vagina, gently aspirated onto the slide, and observed under the microscope. Staining was performed when necessary, fixed with 95% ethanol for 10 minutes, stained with hematoxylin in aqueous solution for 5-8 minutes, washed with running water for color separation, and then stained with eosin for 3 minutes. After drying. the slices were sealed with neutral gum.
The vagina of mice was exposed, and about 30 μl of normal saline was dripped into the vagina, gently aspirated onto the slide, and observed under the microscope. Staining was performed when necessary, stained with hematoxylin in aqueous solution for several minutes after drying, washed with running water for color separation, and then stained with alchhol eosin for several seconds. The slices were sealed with neutral gum.
During the estrous cycle, a series of histological and physiological changes occur in the reproductive and endocrine systems of mice. According to these changes, the estrous cycle can be divided into proestrous (P), estrous (E), metestrum (M) and diestrum (D). • 1. Observation of estrous cycle in mice of Example 1
After modeling and treatment, there were 6 mice left in the normal saline group, 6 mice left in the sodium fumarate treatment group, 7 mice left in the hyodeoxycholic acid group, and 7 mice left in the sodium fumarate and hyodeoxycholic acid combination group. […] The estrous cycle was divided into four periods (P: proestrous; E: estrous period; M: metestrum; D: diestrum) for vaginal smear cytological observation, the results are shown in FIG. 3.
The estrous cycle of mice was plotted according to the cytological results of vaginal smears observed for 12 consecutive days, and the results are shown in FIG. 4. The estrous cycle of mice is about 4 to 5 days, which is divided into four periods alternately. […] The estrous cycle of 4 mice was recovered in sodium fumarate treatment group. The estrous cycle of 3 mice was recovered in HDCA group. The estrous cycle of 6 mice was recovered in group treated with SF and HDCA.

[12] = Example 2, FIG. 8, not statistically significant
[13] = serum, POI mice after treatment
[14] = Example 2, during drug administration, FIG. 5B
[15] = Example 1, during drug administration, FIG. 4B

SMILES: COC(=O)/C=C/C(=O)OC [DMF, dimethyl fumarate]
- Serum E2 level compared with the normal saline group [1, 12]: certain tendency to decrease
- E2 ([1]; Example 2 POI mice): 48.86 ± 11.41 pg/mL
- MDA activity compared with the normal saline group ([2]; FIG. 10, no significant difference): reduced to some extent
- MDA [2, 13]: 1.83 ± 3.06 nmol/mL
- Effect on mice with premature ovarian failure (conclusion from estrous cycle) ([3]; Example 2): preventive and therapeutic effects
- Average rate of diestrum (D) in estrous cycle [3, 14]: 55.00%
- Average rate of estrous (E) stage in estrous cycle [3, 14]: 15.00%
- Average rate of metestrum (M) in estrous cycle [3, 14]: 2.50%
- Average rate of proestrous (P) in estrous cycle [3, 14]: 27.50%
- Number of mice with estrous cycle recovered ([3]; Example 2, 12 days observation, DMF n=5, HDCA n=6, DMF and HDCA n=7): 4 mice
- Number of genes down-regulated compared with the control group [4]: 5261 genes
- Number of genes up-regulated compared with the control group [4]: 1547 genes
- Body weight before modeling ([5]; Example 2 POI mice): 19.22 ± 1.39 g
- Body weight after modeling ([5]; Example 2 POI mice): 16.54 ± 1.44 g
- Body weight after treatment ([5]; Example 2 POI mice): 16.98 ± 1.99 g
- ROS levels compared with the normal saline group ([6]; FIG. 11): significantly reduced
- ROS ([6]; relative ROS level in serum, POI mice after treatment): 4.610 ± 0.476
- Serum FSH level compared with the normal saline group [7, 12]: certain decreasing trend
- FSH ([7]; Example 2 POI mice): 2.39 ± 1.07 mIU/mL
- Activity of SOD compared with the normal saline group ([8]; FIG. 9, difference not significant): increased
- SOD [8, 13]: 14.42 ± 9.05 U/mL

SMILES: O=C([O-])/C=C/C(=O)[O-].[Na+].[Na+] [SF, sodium fumarate]
- Serum E2 level compared with the normal saline group ([1]; Example 1, FIG. 7): tendency to increase
- E2 ([1]; Example 1 POI mice): 57.24 ± 4.56 pg/mL
- Body weight before modeling ([5]; Example 1 POI mice): 18.77 ± 0.63 g
- Body weight after modeling ([5]; Example 1 POI mice): 18.15 ± 0.92 g
- Body weight after treatment ([5]; Example 1 POI mice): 18.07 ± 1.03 g
- Weight recovery after chemotherapy ([5]; Example 1 POI mice, FIG. 2A): significantly beneficial
- Weight recovery after chemotherapy ([5]; Example 2 POI mice, FIG. 2B): significantly beneficial
- Activity of LDH compared with the normal saline group ([9]; FIG. 12): reduced to some extent
- LDH [9, 13]: 3136.09 ± 294.67 U/mL
- Serum FSH level compared with the normal saline group ([7]; Example 1, FIG. 6): certain increasing trend
- FSH ([7]; Example 1 POI mice): 8.56 ± 2.59 mIU/mL
- Restoration of ovulation in aged mice [10]: can restore ovulation
- Number of mice that ovulated ([10]; SF n=4, SF+HDCA n=3, FIG. 13): 4 mice
- Effect on mice with premature ovarian failure (conclusion from estrous cycle) ([11]; Example 1): preventive and therapeutic effects
- Average rate of diestrum (D) in estrous cycle [11, 15]: 20.83%
- Average rate of estrous stage (E) in estrous cycle [11, 15]: 20.83%
- Average rate of metestrum (M) in estrous cycle [11, 15]: 18.10%
- Average rate of proestrous (P) in estrous cycle [11, 15]: 40.28%
- Number of mice with estrous cycle recovered ([11]; Example 1, 12 days observation, 6 SF, 7 HDCA, 7 SF and HDCA mice left): 4 mice
